The values below come from ChEMBL document CHEMBL1124263 (J Med Chem, 1988).

Test [1] concerns the target 5-hydroxytryptamine receptor 1B (Rattus norvegicus, UniProt P28564). The test can be described thus: biochemical.
Test [2] addresses T1, Serotonin 2 (5-HT2) receptor (Rattus norvegicus, UniProt P30994+P08909+P14842).
In test [3] the target is T1, Serotonin 2 (5-HT2) receptor. Kind of test: Ability to displace 0.75 nM [3H]ketanserin in 5-hydroxytryptamine 2 receptor from rat frontal cortex homogenate. It is filed as tissue-based.

Chain of 5-hydroxytryptamine receptor 1B (P28564 whole entry): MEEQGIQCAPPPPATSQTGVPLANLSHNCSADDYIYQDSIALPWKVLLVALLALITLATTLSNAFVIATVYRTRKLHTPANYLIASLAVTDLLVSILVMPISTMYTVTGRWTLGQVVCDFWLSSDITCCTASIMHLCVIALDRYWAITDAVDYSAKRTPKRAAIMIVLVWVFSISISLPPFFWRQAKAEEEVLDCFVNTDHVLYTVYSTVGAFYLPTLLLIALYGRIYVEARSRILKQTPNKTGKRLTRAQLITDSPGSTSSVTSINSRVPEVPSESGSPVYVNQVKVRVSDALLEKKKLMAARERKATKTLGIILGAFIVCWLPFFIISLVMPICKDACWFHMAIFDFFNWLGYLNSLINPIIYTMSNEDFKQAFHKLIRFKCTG

Take `COc1ccc2[nH]cc(C[C@H](C)N)c2c1`: the Ki (in general, the dissociation constant of the complex between target and ligand, obtained from inhibition or displacement) in test [1] was 417 nM. In addition, the “Log Ki” value in test [2] is given as -6.15.

Take `C[C@@H](N)Cc1c[nH]c2cccc(O)c12`: in test [1], the Ki was 1550 nM. Also, in test [2], the “Log Ki” value is reported as -5.46.

In test [1], `COc1cccc2[nH]cc(C[C@@H](C)N)c12` showed a Ki of 776 nM. In addition, the “Log Ki” value in test [2] is -5.84.

In the case of `COc1ccc2c(C[C@H](C)N)c[nH]c2c1`, the Ki in test [1] is 7240 nM; in test [3] it was more than 10000 nM.

`COc1ccc2[nH]cc(C[C@@H](C)N)c2c1` gave a Ki in test [1] of 380 nM. In addition, the “Log Ki” value in test [2] is -5.89.

In turn, `COc1cccc2[nH]cc(C[C@H](C)N)c12` showed a Ki in test [1] of 2690 nM. Also, in test [2], the “Log Ki” value is recorded as -6.02.

Turning to `COc1ccc2c(C[C@@H](C)N)c[nH]c2c1`, the Ki is 2140 nM in test [1] and more than 10000 nM in test [3].

In test [1], `C[C@H](N)Cc1c[nH]c2cccc(O)c12` gave an inhibition constant (Ki) of 4070 nM. Further, the “Log Ki” value in test [2] is given as -5.21.
